In BigSolDB 2.1:

Cc1ncc([N+](=O)[O-])n1CCO
solubility (mole fraction)
Conditions	in chloroform	in ethanol	in ethyl acetate	in isopropanol	in methanol	in n-butanol	in water
293.15 K	0.00128	0.00433	0.00299	0.00396	0.00641	0.00533	0.000872
297.55 K	0.0016	0.00596	0.00395	0.00462	0.0076	0.00576	–
298.45 K	–	–	–	–	–	–	0.00104
302.55 K	0.00226	0.00641	0.00495	0.00559	0.00925	0.00692	–
306.95 K	–	–	–	–	–	–	0.00146
307.55 K	0.00288	0.00763	0.00605	0.00615	0.0112	0.00914	–
308.65 K	–	–	–	–	–	–	0.00152
312.35 K	0.0036	0.00978	0.00713	0.00794	0.0138	0.0111	–
313.15 K	–	–	–	–	–	–	0.00181
317.85 K	0.00418	0.0121	0.00887	0.0102	0.017	0.0132	–
318.05 K	–	–	–	–	–	–	0.00216
322.35 K	–	0.0145	0.0121	0.0125	0.0201	0.0163	–
322.95 K	–	–	–	–	–	–	0.00265
